Tests used:
[1] = Cytotoxicity, CellTiter Glo; assay type: cell-based; conditions: human, LN229 cells, 5-day proliferation
[2] = Cytotoxicity, CellTiter Glo; assay type: cell-based; conditions: human, ZR7350 cells, 7-day proliferation, neural crest derived lines
[3] = Cytotoxicity, CellTiter Glo; assay type: cell-based; conditions: human, PA-1 cells, 7-day proliferation, neural crest derived lines
[4] = Cytotoxicity, CellTiter Glo; assay type: cell-based; conditions: human, 22RV1 cells, 5-day proliferation
[5] = Cytotoxicity, CellTiter Glo; assay type: cell-based; conditions: human, Kasume-1 cells, 5-day proliferation
[6] = Cytotoxicity, CellTiter Glo; assay type: cell-based; conditions: human, LNCap cells, 5-day proliferation
[7] = Cytotoxicity, CellTiter Glo; assay type: cell-based; conditions: human, DU145 cells, 5-day proliferation
[8] = tested on: subcutaneous MV4;11 xenografts; test: In vivo efficacy study, MV4;11 xenograft tumor volume; parameters: species or system SCID/bg mice; conditions: 30 mg/kg/day osmotic mini-pump for 14 days, compared to vehicle
Procedure: The efficacy of the compound of Example 7 was further examined by monitoring tumor volume during treatment with the compound of Example 7. Subcutaneous MV4;11 xenografts were implanted in SCID/bg mice and allowed to grow to 200 mm^3. […] Tumors were measured at the indicated time points (i.e., from 20 days to 55 days post-inoculation of the mice with the MV4;11 cells) and tumor growth was plotted as a function of time (FIG. 9).

[9] = tested on: MV4;11 cells; test: Combination of G9a inhibitor and ATRA on MV4;11 proliferation (CellTiter Glo); assay type: cell-based, human; conditions: 0, 300 nM or 3 μM Example 7 with 0-100 nM ATRA, 5 days
Procedure: Cellular proliferation was determined by CellTiter Glo assay.

[10] = Cytotoxicity, CellTiter Glo; assay type: cell-based; conditions: human, L-363 cells, 5-day proliferation
[11] = Cytotoxicity, CellTiter Glo; assay type: cell-based; conditions: human, K562 cells, 5-day proliferation
[12] = Cytotoxicity, CellTiter Glo; assay type: cell-based; conditions: human, SK-N-MC cells, 7-day proliferation, neural crest derived lines
[13] = tested on: human peripheral blood mononucleated cells (PBMCs); test: Viability of PBMCs (Caspase-Glo 3/7, CellTiter Glo); assay type: cell-based; conditions: 0-10 uM, 48 h
Procedure: Following treatment, Caspase 3/7 activity (i.e., a marker of apoptosis) was assessed by the Caspase-Glo 3/7 assay system (FIG. 7A), and cell viability was assessed by CellTiter Glo assay (FIG. 7B).

[14] = tested on: HL-60 acute promyelocytic cells; test: Differentiation, proliferation, viability and cell cycle of HL-60 cells, 4 days; assay type: cell-based; conditions: 0-10 μM
Procedure: Cells were then fixed, stained with an anti-CD11b antibody and analyzed by flow cytometry (FIG. 6A).
Cell cycle analysis (PI staining) of HL-60 cells following the 4 day treatment at the indicated concentrations (i.e., 0 μM, 0.1 μM, 0.3 μM, 1 μM, 3 μM, and 10 μM) was also performed (FIG. 6C).

[15] = Cytotoxicity, CellTiter Glo; assay type: cell-based; conditions: human, Calu6 cells, 5-day proliferation
[16] = Cytotoxicity, CellTiter Glo; assay type: cell-based; conditions: human, SKBR3 cells, 5-day proliferation
[17] = Cytotoxicity, CellTiter Glo; assay type: cell-based; conditions: human, G-401 cells, 7-day proliferation, neural crest derived lines
[18] = Cytotoxicity, CellTiter Glo; assay type: cell-based; conditions: human, TC-71 cells, 7-day proliferation, neural crest derived lines
[19] = Cytotoxicity, CellTiter Glo; assay type: cell-based; conditions: human, HL-60 cells, 5-day proliferation
[20] = Cytotoxicity, CellTiter Glo; assay type: cell-based; conditions: human, MV4;11 cells, 5-day proliferation
[21] = PK/PD study, plasma and tissue concentrations; assay type: in vivo, SCID/bg mice; conditions: 30 mg/kg/day osmotic mini-pump, samples at 2, 7, 14 days
From the text: Specifically, subcutaneous MV4;11 xenografts were implanted in SCID/bg mice and allowed to grow to 200 mm^3. […] In particular, by day 14, dimethylation of lysine 9 of histone H3 in the tumor tissue was reduced by 46 percent as compared to the vehicle.

[22] = Cytotoxicity, CellTiter Glo; assay type: cell-based; conditions: human, OPM2 cells, 5-day proliferation
[23] = tested on: HT1080 fibrosarcoma cells; test: Cell viability of HT1080 fibrosarcoma cells; assay type: cell-based; conditions: 48 h, 0-10,000 nM
[24] = tested on: H3K9me2; test: H3K9me2 levels by AlphaLISA in HT1080 cells; assay type: cell-based; conditions: 48 h, 0-1,000 nM
[25] = Cytotoxicity, CellTiter Glo; assay type: cell-based; conditions: human, THP-1 cells, 5-day proliferation
[26] = Cytotoxicity, CellTiter Glo; assay type: cell-based; conditions: human, CAPO-ES1 cells, 7-day proliferation, neural crest derived lines
[27] = Cytotoxicity, CellTiter Glo; assay type: cell-based; conditions: human, H929 cells, 5-day proliferation
[28] = Cytotoxicity, CellTiter Glo; assay type: cell-based; conditions: human, RPMI8226 cells, 5-day proliferation
[29] = Cytotoxicity, CellTiter Glo; assay type: cell-based; conditions: human, RS4;11 cells, 5-day proliferation
[30] = Cytotoxicity, CellTiter Glo; assay type: cell-based; conditions: human, DaoY cells, 7-day proliferation, neural crest derived lines
[31] = Cytotoxicity, CellTiter Glo; assay type: cell-based; conditions: human, US2OS cells, 7-day proliferation, neural crest derived lines
[32] = tested on: MV4;11 cells; test: Differentiation, proliferation, viability and cell cycle of MV4;11 cells, 14 days; assay type: cell-based, human
From the text: MV4;11 cells are a human acute myelocytic leukemia (AML) cell line derived from a human with leukemia.

[33] = Cytotoxicity, CellTiter Glo; assay type: cell-based; conditions: human, KMS11 cells, 5-day proliferation
[34] = Cytotoxicity, CellTiter Glo; assay type: cell-based; conditions: A-201 cells, 12-day proliferation, neural crest derived lines

COc1cc2c(cc1OCCCN1CCCC1)N=C(N)C21CCC1 [Example 7, 5′-methoxy-6′-(3-(pyrrolidin-1-yl)propoxy)spiro[cyclobutane-1,3′-indol]-2′-amine]
IC50 at 5 day [1]: > 10 µM | IC50 at 7 day [2]: > 10 µM | IC50 at 7 day [3]: > 10 µM | IC50 at 5 day [4]: > 10 µM | IC50 at 5 day [5]: > 10 µM | IC50 at 5 day [6]: > 10 µM | IC50 at 5 day [7]: > 10 µM | tumor growth (tumor volume) [8]: growth inhibition of the tumors | MV4;11 proliferation, combination with ATRA [9]: additive effects on MV4;11 proliferation | IC50 at 5 day [10]: > 10 µM | IC50 at 5 day [11]: > 10 µM | IC50 at 7 day [12]: 9.7 µM | effect on PBMC viability (Caspase 3/7 activity and CellTiter Glo) [13]: no effect on cell viability | cell cycle analysis (PI staining) [14]: increased numbers of cells were in the G1 phase | cell proliferation (CellTiter Glo) [14]: inhibited proliferation of the HL-60 cells | cell viability (trypan blue exclusion) [14]: largely unaffected | differentiation (CD11b, flow cytometry) [14]: induced differentiation of the HL-60 cells | IC50 at 5 day [15]: > 10 µM | IC50 at 5 day [16]: > 10 µM | IC50 at 7 day [17]: > 10 µM | IC50 at 7 day [18]: > 10 µM | IC50 at 5 day [19]: > 10 µM | IC50 at 5 day [20]: > 10 µM | accumulation in tumor tissue (as well as liver and muscle tissue) [21]: significant accumulation | IC50 at 5 day [22]: > 10 µM | cytotoxicity compared with UNC0638 [23]: reduced cytotoxicity | H3K9me2 reduction compared with UNC0638 [24]: equivalent effects on H3K9me2 reduction | IC50 at 5 day [25]: > 10 µM | IC50 at 7 day [26]: > 10 µM | IC50 at 5 day [27]: > 10 µM | IC50 at 5 day [28]: > 10 µM | IC50 at 5 day [29]: > 10 µM | IC50 at 7 day [30]: > 10 µM | IC50 at 7 day [31]: > 10 µM | MV4;11 cells no longer proliferating (CellTiter Glo) ([32]; 3 μM): about 100% | viability at 3 µM ([32]; Homo sapiens, MV4-11, 336 h, 3 μM, read-out: viable MV4;11 cells (trypan blue exclusion)): ~20% | cell cycle analysis (PI staining) ([32]; MV4;11 cells, 0-3 μM): more cells were observed to be in the subG1/G0 phase | expression of marker CD11b by flow cytometry (differentiation) ([32]; MV4;11 cells, 0-3 μM): more cells in the population expressed the marker CD11b | cells positive for CD11b ([32]; MV4;11 cells, 3 μM): about 90% | IC50 at 5 day [33]: > 10 µM | IC50 at 12 day [34]: > 10 µM
